# Experimental data from PubChem BioAssay (NCI).
#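 Assay format: 96-well plates, 48-hour exposure. GI50 marks 50% less growth. The concentration for full growth arrest is given as TGI.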 Where a SMILES comes first, the peptide text is derived from it. Bridges are numbered along the chain shown (N, C = ends). Roman numbers before positions name the chains, in order. [ ]: non-standard residue; d: D form. The star is where a group is joined. Heptadecanoyl = CCCCCCCCCCCCCCCCC(=O)*; Phg = N[CH](C(=O)O)c1ccccc1
# Key:
# Assay in all cases: DTP human tumour cell line panel, 48 h
# MOLT-4 leukemia = tested on: MOLT-4 leukemia
# T-47D breast = tested on: T-47D breast
# IGROV1 ovarian = tested on: IGROV1 ovarian
# RXF 393 renal = tested on: RXF 393 renal
# MALME-3M melanoma = tested on: MALME-3M melanoma
# NCI-H23 lung = tested on: NCI-H23 lung
# UACC-257 melanoma = tested on: UACC-257 melanoma
# COLO 205 colon = tested on: COLO 205 colon
# LOX IMVI melanoma = tested on: LOX IMVI melanoma
# NCI-H460 lung = tested on: NCI-H460 lung
SMILES,TGI (MOLT-4 leukemia),TGI (T-47D breast),TGI (IGROV1 ovarian),TGI (RXF 393 renal),TGI (MALME-3M melanoma),TGI (NCI-H23 lung),TGI (UACC-257 melanoma),TGI (COLO 205 colon),TGI (LOX IMVI melanoma),TGI (NCI-H460 lung),GI50 (MOLT-4 leukemia),GI50 (T-47D breast),GI50 (IGROV1 ovarian),GI50 (RXF 393 renal),GI50 (NCI-H23 lung),GI50 (UACC-257 melanoma),GI50 (COLO 205 colon),GI50 (NCI-H460 lung)
O=C1/C(=C/c2ccc(O)cc2)CCc2ccccc21,12.4 µM,> 100 µM,> 76 µM,35.1 µM,42.9 µM,55.2 µM,35.8 µM,40.5 µM,49.2 µM,72.4 µM,,,,,,,,
C[C@]12CCC(=O)C=C1CC[C@@H]1[C@@H]2CC[C@]2(C)C(=O)/C(=C\c3ccccc3)C[C@@H]12,> 57 µM,> 86.7 µM,> 100 µM,> 73.7 µM,73.9 µM,62.5 µM,> 100 µM,55.9 µM,> 51.5 µM,> 66 µM,,,,,,,,
COC(=O)c1cc(/C=C2\Cc3cc4c(cc3C2=O)CCC4)cc2c1CCC2,> 100 µM,> 100 µM,> 100 µM,,> 100 µM,> 100 µM,> 100 µM,> 100 µM,> 100 µM,> 100 µM,,,,,,,,
COc1cc(C2SC(N)=Nc3c2c(C)nn3C(=O)Cc2ccccc2)ccc1O (stereo unspecified),> 100 µM,> 100 µM,> 100 µM,,> 100 µM,> 100 µM,> 100 µM,> 100 µM,> 100 µM,> 100 µM,,,,,,,,
O=C(Nc1ccc(F)cc1)c1cc2ccc(O)cc2oc1=Nc1cccc(F)c1,> 100 µM,> 100 µM,49.7 µM,,> 100 µM,55.7 µM,> 100 µM,> 100 µM,52.6 µM,> 100 µM,,,,,,,,
c1ccc(-c2cc(-c3cc(-c4ccccc4)no3)on2)cc1,81.3 µM,> 100 µM,> 100 µM,> 100 µM,> 100 µM,> 100 µM,> 100 µM,> 100 µM,> 100 µM,> 100 µM,,,,,,,,
Cc1nn(C(=O)c2ccncc2)c2c1C(c1ccccc1O)SC(N)=N2 (stereo unspecified),> 10 µM,> 10 µM,> 10 µM,> 10 µM,> 10 µM,> 10 µM,> 10 µM,> 10 µM,> 10 µM,> 10 µM,,,,,,,,
CCC1CCN=C(Cn2cc(C)c(=O)[nH]c2=O)N1 (stereo unspecified),,> 100 µM,> 100 µM,> 100 µM,> 100 µM,> 100 µM,> 100 µM,> 100 µM,> 100 µM,> 100 µM,,,,,,,,
N=C(N)c1ccc(-c2ccc(-c3ccc(C(=N)N)cc3)o2)cc1,77.5 µM,74.9 µM,> 100 µM,> 100 µM,> 100 µM,87 µM,87.2 µM,43.2 µM,,40 µM,,,,,,,,
CC(C)[C@H](NC(=O)[C@@H](O)[C@H](N)Cc1ccccc1)C(=O)N[C@@H](Cc1ccccc1)C(=O)O,> 100 µM,> 100 µM,> 100 µM,,> 100 µM,> 100 µM,> 100 µM,> 100 µM,> 100 µM,> 100 µM,,,,,,,,
Oc1ccc2c3c1OC1c4[nH]c5c(c4CC4(O)C(C2)N(CC2CC2)CC[C@]314)CC1(O)C2Cc3ccc(O)c4c3[C@@]1(CCN2CC1CC1)C5O4 (stereo partly specified),53.9 µM,47.6 µM,> 100 µM,82.2 µM,31.6 µM,> 100 µM,37.4 µM,35.6 µM,83.2 µM,,,,,,,,,
Cc1ccc(S(=O)(=O)N/N=C2/CC[C@H](C(C)(C)C)C[C@@H]2C)cc1,31.1 µM,25.5 µM,30 µM,,29.8 µM,36.8 µM,27 µM,35.4 µM,27.9 µM,32.2 µM,,,,,,,,
CCOC(=O)c1cc(C2(OC)CCN(Cc3ccccc3)C2=O)c(-c2cc(C)no2)[nH]1 (stereo unspecified),> 100 µM,> 100 µM,> 100 µM,> 100 µM,> 100 µM,> 100 µM,> 100 µM,> 100 µM,,> 100 µM,,,,,,,,
COc1ccc(C2S/C(=C\c3cccc([N+](=O)[O-])c3)C(=O)N2NC(=O)Cc2ccccc2)cc1 (stereo unspecified),> 100 µM,,> 100 µM,> 100 µM,> 100 µM,> 100 µM,> 100 µM,> 100 µM,> 100 µM,> 100 µM,,,,,,,,
N=c1c2ccccc2nc2oc3ccc(Cl)cc3n12,> 100 µM,,69.8 µM,26.1 µM,40.1 µM,34.2 µM,> 100 µM,> 100 µM,26.8 µM,> 100 µM,,,,,,,,
Cc1c(C)c2ccc(O)cc2[nH]c1=O,> 100 µM,> 100 µM,> 100 µM,> 100 µM,,> 100 µM,> 100 µM,> 100 µM,> 100 µM,> 100 µM,,,,,,,,
COc1ccc(N2C(=O)CC(c3c[nH]c4ccccc34)C2=O)cc1 (stereo unspecified),> 100 µM,,> 100 µM,> 100 µM,> 100 µM,> 100 µM,> 100 µM,> 100 µM,> 100 µM,> 100 µM,,,,,,,,
CC[C@@H]1C[C@@H](O)[C@@H]2[C@H](O)[C@H](O)CN2C1,> 100 µM,> 100 µM,> 100 µM,,> 100 µM,> 100 µM,> 100 µM,> 100 µM,> 100 µM,> 100 µM,,,,,,,,
CCCCCCCCCCCCCCCCC(=O)N1CCCC1C(=O)NCC(=O)NC(C(=O)N1CCCC1C(=O)NC(CO)C(=O)NC(Cc1ccc(O)cc1)C(=O)NC(CCCCNC(=O)C1CCCN1C(=O)C(CCCCN)NC(=O)C(CCCCN)NC(=O)C(CCCCN)NC(=O)C(CCCNC(=N)N)NC(=O)C(CCCCN)NC(=O)C(N)C(C)C)C(=O)NC(CC(C)C)C(=O)NC(CCCNC(=N)N)C(=O)N1CCCC1C(=O)NCC(N)=O)c1ccccc1 (stereo unspecified) (I: Heptadecanoyl-PG[Phg]PSYKLRPG-NH2 / II: H-VKRKKKP; amide I:7-II:C; configuration not given here),44.8 µM,70.7 µM,75.7 µM,> 100 µM,,> 100 µM,62.9 µM,18.4 µM,,> 100 µM,16.3 µM,5.38 µM,24.8 µM,36.8 µM,31.5 µM,12.2 µM,4.75 µM,23.2 µM
CC(C)=CCC/C(C)=C/CC/C(C)=C/CC/C(C=O)=C/CC/C(C)=C\CC/C(C)=C/CC/C(C)=C/CC/C(C)=C/CC1=CC(=O)C=CC1=O,> 100 µM,69.4 µM,> 100 µM,,66.3 µM,> 100 µM,> 100 µM,> 100 µM,> 100 µM,> 100 µM,,,,,,,,
